Assay results reported in publication PMC6017025, “Pharmacokinetics of Schizandrin and Its Pharmaceutical Products Assessed Using a Validated LC–MS/MS Method” (Molecules : A Journal of Synthetic Chemistry and Natural …, 2018).
Where two headings read alike, the source gives them in different places.

What was measured:
[1] = Pharmacokinetics of schizandrin in plasma of freely moving rats after i.v./oral schizandrin or oral S. chinensis product (LC-MS/MS, noncompartmental analysis); format: in vivo, rat
Procedure: All experimental protocols involving animals were reviewed and approved by the Institutional Animal Care and Use Committee (IACUC number: 1060813) of National Yang-Ming University. Male Sprague-Dawley rats were obtained from the Laboratory Animal Center of the National Yang-Ming University, Taipei, Taiwan. The animals had free access to food (laboratory rodent diet 5P14, PMI Feeds, Richmond, IN) and water. Six Sprague-Dawley rats (220–240 g) were anesthetized with pentobarbital (50 mg/kg, i.p.) for cannulation. Surgical sites were shaved and disinfected with 70% ethanol solution, and a polyethylene tube (PE50) was implanted into the right jugular vein for collecting blood samples. The cannula were exteriorized and fixed in the dorsal region of the neck. Patency of the tube was maintained by flushing with heparinized saline (20 IU/mL). Rats were allowed to recover 24 h prior to drug administration. Schizandrin was dissolved in 10%DMSO and triply deionized water and administered by gastric gavage at a dose of 10 mg/kg. Schizandrin was dissolved in 10%ethanoland triply deionized water and administered by intravenous injection at a dose of 10 mg/kg. The S. chinensis pharmaceutical product was dissolved in triply deionized water and administered by gastric gavage at a dose of 3 g/kg and 10 g/kg (equivalent to 5.2 mg/kg and 17.3 mg/kg schizandrin).The gavage administration of S. chinensis volume was 3 mL. A 200 μL blood sample was withdrawn from the right jugular vein […] into a heparin-rinsed vial at 5, 15, 30, 45, 60, 90, 120, 150, 180, 240, 360 and 480 min. Blood samples were centrifuged at 6000× g for 10 min at 4 °C. The biological samples were stored at −20 °C before analysis.
Each blood sample (50 μL) was mixed with 1 mL of ethyl acetate and vortexed for 5 min. The mixture was centrifuged at 16000× g for 10 min at 4 °C. The supernatant (1 mL) was transferred to an Eppendorf vial and dried at 40 °C in a centrifugation evaporator. The dried sample was reconstituted in 190 μL of methanol and IS solution (methyl yellow, 5 ng/mL in methanol) and filtered through a 0.22 μm filter. Finally, the filtrate (10 μL) was applied to the UPLC-MS/MS system for analysis.
The LC–MS/MS analysis was performed using a Waters Acquity UPLC™ system (Waters Co., Manchester, UK) consisting of binary solvent manager, an automatic liquid chromatographic sampler and a Waters Xevo^TM tandem quadrupole mass spectrometry equipped with an electrospray ionization (ESI) source. The chromatography was performed on a Purospher® STAR RP-18 endcapped (100 mm × 2.1 mm, 2 μm, Merck KGaA, Darmstadt, Germany) analytical column and maintained at 40 °C in a column oven. The mobile phase consisted of 0.1% formic acid-methanol (15:85, v/v), and the flow rate was set at 0.2 mL/min. The injection volume was 10 μL. The positive ion mode with a multiple reaction monitor (MRM) was used for UPLC-MS/MS analysis. The following precursor-to-product ion transitions were used: m/z 433.22→415.19 for schizandrin and m/z 226.26→76.91 for methyl yellow (internal standard, IS).The instrument parameters were optimized as follows: capillary voltage, 3.2 kV; desolvation gas, nitrogen; desolvation temperature, 400 °C; desolvation gas flow rate, 800 L/h; cone voltage, 18 V; collision energy, 12 V and source temperature, 150 °C. MassLynx 4.1 software (Waters Corporation, Milford, MA, USA) was used for data processing.
Pharmacokinetic calculations were performed on each individual set of data using the pharmacokinetic software WinNonlin Standard Edition, version 1.1 (Scientific Consulting Inc., Apex, NC, USA) by noncompartmental methods for intravenous and oral administration. The results were analyzed using Student’s t-test and the SigmaPlot program (version 13). All data are presented as the mean ± standard deviation (SD).

[2] = Stability of schizandrin in rat plasma (method validation); format: in vitro ADME; conditions: for Autosampler Stability / Short-Term Stability / Freeze-Thaw Stability / Long-Term Stability: rat plasma, in % (unit assumed); for Autosampler Stability: 10 °C for 24 h in autosampler; for Short-Term Stability: room temperature for 12 h; for Long-Term Stability: −20 °C for 1 month
Procedure: (§1) Three concentrations (low, medium, and high) were evaluated for stability. The schizandrin concentrations of 5, 50, and 500 ng/mL were used in the method validation.
Stability was evaluated under four conditions: […]; […]; long-term stability kept at −80 °C for 1 month; and freeze-thaw stability: three samples were frozen and stored at −20 °C for 24 h and then thawed at room temperature. After repeating this cycle three times, the samples were analyzed by UHPLC-MS/MS.

[3] = Stability of schizandrin stock solution; format: physicochemical; conditions: up to 1 month at −20 °C
Procedure: as §1

[4] = male, Sprague-Dawley, iv, schizandrin 10 mg/kg, rat plasma, n = 6
[5] = male, Sprague-Dawley, po, schizandrin 10 mg/kg, rat plasma, n = 6
[6] = schizandrin 10 mg/kg, p.o., rat plasma, n = 6

concentration at 15 min ([1]; male, Sprague-Dawley, intravenous, plasma sample from jugular vein of a rat at 15 min after 10 mg/kg, i.v. (Figure 2C)): 31.8 ng/mL | AUC [1, 4]: 718 ng·h/mL | MRT [1, 4]: 34.8 min | clearance [1, 4]: 240 ± 30 mL/min/kg | half-life [1, 4]: 42.2 ± 14.8 min | clearance ([1]; male, Sprague-Dawley, plasma, schizandrin intravenous group (10 mg/kg), rat): 90 mL/min | AUC [1, 5]: 112 ng·h/mL | Cmax [1, 5]: 60 ± 30 ng/mL | MRT [1, 5]: 113 min | half-life [1, 5]: 74.7 ± 33.6 min | bioavailability ([1]; male, Sprague-Dawley, rat, plasma, oral, 10 mg/kg, schizandrin 10 mg/kg, p.o. vs 10 mg/kg i.v., rat, read-out: F (bioavailability)): ~15.6% | Tmax ([1]; male, Sprague-Dawley, rat, plasma, po, 10 mg/kg, schizandrin 10 mg/kg, p.o., rat plasma, n = 6, read-out: Tmax): ≤ 30 min | clearance (CL) ([1]; schizandrin 10 mg/kg orally, rat): 340 ± 1240 mL/min/kg | CL [1, 6]: 340 ± 1240 mL/min/kg | Tmax [1, 6]: 22.50 ± 12.55 min | degradation in biological samples ([2]; autosampler 24 h at 10 °C, 12 h at room temperature, 1 month at −80 °C, three freeze-thaw cycles): No significant degradation | Autosampler Stability ([2]; 5 ng/mL): −1.78 ± 2.25 | Short-Term Stability ([2]; 5 ng/mL): −1.63 ± 8.36 | Freeze-Thaw Stability ([2]; 5 ng/mL, three freeze-thaw cycles): −8.04 ± 3.19 | Long-Term Stability ([2]; 5 ng/mL): −0.56 ± 0.39 | Autosampler Stability ([2]; 50 ng/mL): 3.17 ± 3.19 | Short-Term Stability ([2]; 50 ng/mL): 5.70 ± 4.52 | Freeze-Thaw Stability ([2]; 50 ng/mL, three freeze-thaw cycles): −5.16 ± 3.83 | Long-Term Stability ([2]; 50 ng/mL): −9.02 ± 0.40 | Autosampler Stability ([2]; 500 ng/mL): 0.43 ± 0.12 | Short-Term Stability ([2]; 500 ng/mL): 0.64 ± 0.08 | Freeze-Thaw Stability ([2]; 500 ng/mL, three freeze-thaw cycles): −0.63 ± 0.30 | Long-Term Stability ([2]; 500 ng/mL): −6.75 ± 6.39 | stability of stock solution [3]: stable
Compound: COc1cc2c(c(OC)c1OC)-c1c(cc(OC)c(OC)c1OC)C[C@](C)(O)[C@@H](C)C2 [schizandrin]
